# Laboratory results reported in patent US7098219B2, “Inhibitors of cellular efflux pumps of microbes” (Wockhart Limited, priority 2000, dated 2006).
# System: Staphylococcus aureus 1199 B NorA+
# Type: cell-based
# Settings: combination with ciprofloxacin, broth microdilution checkerboard, 35° C. 20 hours; FIC index ≦0.5 synergistic, 0.5–2.0 additive, >2.0 antagonistic
# Source text: Testing method for inhibition of the efflux pump of Staphylococcus aureus 1199B NorA^+
# […]. Victor Lorian, Md., Fourth edition 1996, pp 333–338).
# In short, the assay involves broth microdilution method performed as recommended by the National Committee for Clinical Laboratory Standards (NCCLS) 1997 (Methods for Dilution of Antimicrobial Susceptibility Tests for Bacteria that Grow Aerobically, Fourth edition; Approved Standard, NCCLS document M7-A4, vol. 17, No. 2). The test organism used for the assay is Staphylococcus aureus 1199 B NorA^+.
# […]. Stock solutions of the efflux pump inhibitors tested are prepared in dimethyl sulfoxide (DMSO) at a final concentration of 5 mg/ml. Stock solutions are further diluted in Mueller Hinton Broth as per the need of the assay. Ciprofloxacin is dissolved in water.
# The checkerboard assay is performed in microtiter plates. […] The efflux pump inhibitor is diluted in the Y-axis, each row containing an equal concentration of efflux pump inhibitor. The result of these manipulations is that each well of the microtiter plate contains a unique combination of concentrations of the two agents. Bacterial inoculum is added at 5×10^5 CFU/ml. Microtiter plates are incubated at 35° C. for 20 hours. Reading is done by visibly noting turbidity and confirmed using a microtiter plate reader (Molecular Devices). The FIC index is calculated as
# (A) is the concentration of the experimental efflux pump inhibitor in the well that is the lowest inhibitory concentration in the Y-axis. (MICA) is the MIC of Staphylococcus aureus to experimental efflux pump inhibitor alone. FICA is the fractional inhibitory concentration of an experimental efflux pump inhibitor. […] (Antimicrobial Combination In Antibiotics in Laboratory Medicine, Ed. Victor Lorian, Md., Fourth edition 1996, pp 333–338).
row,Compound,FIC INDEX
1,"Cc1c(F)c(N2CCC(Nc3c(F)c(N)c4c(=O)c(C(=O)O)cn(C5CC5)c4c3F)C2)cc2c1c(=O)c(C(=O)O)cn2C1CC1 (stereo not shown) [Bis compound 7, N-1-{7-(1-cyclopropyl-6-fluoro-5-methyl-1,4-dihydro-4-oxo-quinolone-3-carboxylic acid)}-N-3-amino{7-(1-cyclopropyl-6,8-difluoro-5-amino-1,4-dihydro-4-oxo-quinoline-3-carboxylic acid)}-pyrrolidine]",0.304
2,"CC1CCC(N)N1c1c(F)c(N)c2c(=O)c(C(=O)O)cn(C3CC3)c2c1F (stereo not shown) [Example 26 (NorA), 5-Amino-1-cyclopropyl-6,8-difluoro-1,4-dihydro-7-(5′-amino-2′-methyl-pyrrolidin-1-yl)-4-oxo-quinoline-3-carboxylic acid]",0.628
3,"CCn1cc(C(=O)O)c(=O)c2c(N)c(F)c(N3CCC(N)CC3)c(F)c21 [Example 6 (NorA), 5-Amino-1-ethyl-6,8-difluoro-1,4-dihydro-7-(4′-aminopiperidin-1-yl)-4-oxo-quinoline-3-carboxylic acid]",0.314
4,"CCn1cc(C(=O)O)c(=O)c2cc(F)c(N3CCN(CCN4CCOC4=O)CC3)c(F)c21 [Example 3 (NorA), 1-Ethyl-6,8-fluoro-1,4-dihydro-7-(4′-{2′-(2′-oxazolidin-1yl)ethyl}piperazin-1-yl)-4-oxo-quinoline-3-carboxylic acid]",0.188
5,Nc1c(F)c(N2CCC(CNC3CCNCC3)CC2)c(F)c2c1c(=O)c(C(=O)O)cn2C1CC1 [Example 33 (NorA)],0.314
6,CN(c1c(F)c(N)c2c(=O)c(C(=O)O)cn(C3CC3)c2c1F)C1CC(C)(C)N(C)C(C)(C)C1 [Example 34 (NorA)],0.282
7,"5-Amino-1-ethyl-6,8-difluoro-1,4-dihydro-7-[(1∝,5∝,6∝)-6′-(N-t-butoxycarbonylamino)-3-azabicyclo[3.1.0]-hex-3-yl}-4-oxo-quinoline-3-carboxylic acid [Example 8 (NorA)]",0.314
8,"CCCCN(CCCC)C1CCN(c2c(F)c(N)c3c(=O)c(C(=O)O)cn(C4CC4)c3c2F)CC1 [Example 28 (NorA), 5-Amino-1-cyclopropyl-6,8-difluoro-1,4-dihydro-7-{4′-(N-di-n-butylamino)piperidin-1-yl)-4-oxo-quinoline-3-carboxylic acid]",0.314
9,"CCC(=O)OC1CCN(c2c(F)c(N)c3c(=O)c(C(=O)O)cn(C4CC4)c3c2F)CC1 [Example 30 (NorA), 5-Amino-1-cyclopropyl-6,8-difluoro-1,4-dihydro-7-(4′-propionoxypiperidin-1-yl)-4-oxo-quinoline-3-carboxylic acid]",0.314
10,"CC1(C)CN(c2c(F)c(N)c3c(=O)c(C(=O)O)cn(C4CC4)c3c2F)CCC1O (stereo not shown) [Example 31 (NorA), 5-Amino-1-cyclopropyl-6,8-difluoro-1,4-dihydro-7-(4′-hydroxy-3′,3′-dimethyl-piperidin-1-yl)-4-oxo-quinoline-3-carboxylic acid]",0.304
11,"C[C@H]1CCc2c(N3CCC(C(N)=O)CC3)c(F)cc3c(=O)c(C(=O)O)cn1c23 [Example 53 (NorA), (S)-(−)-9-Fluoro-6,7-dihydro-8-(4′-carboxamidopineridin-1-yl)-5-methyl-1-oxo-1H,5H-benzo[i,j]quinolizine-2-carboxylic acid]",0.192
12,"COc1c(N2CC(C)C(N)C(C)C2)c(F)c(N)c2c(=O)c(C(=O)O)cn(C3CC3)c12 (stereo not drawn) [Example 24 (NorA), 5-Amino-1-cyclopropyl-6-fluoro-8-methoxy-1,4-dihydro-7-(cis-4′-amino-3′,5′-dimethylpiperidin-1-yl)-4-oxo-quinoline-3-carboxylic acid]",0.314
13,"Nc1c(F)c(N2CCC(N)C2)c(F)c2c1c(=O)c(C(=O)O)cn2-c1ccc(C(F)(F)F)cc1 (stereo not shown) [Example 43 (NorA), 5-Amino-1-(4′-trifluoromethylphenyl)-6,8-difluoro-1,4-dihydro-7-(3′-aminopyrrolidin-1-yl)-4-oxo-quinoline-3-carboxylic acid]",0.564
14,Nc1c(F)c(NC2CCN(c3nc4c(cc3F)c(=O)c(C(=O)O)cn4C3CC3)C2)c(F)c2c1c(=O)c(C(=O)O)cn2C1CC1 (stereo not shown) [Bis compound 3],0.314
15,"CCn1cc(C(=O)O)c(=O)c2cc(F)c(N3CCc4ccccc4C3)cc21 [1 (NorA), 1-Ethyl-6-fluoro-1,4-dihydro-7-(1′,2′,3′,4′-tetrahydroisoquinolin-2-yl)-4-oxo-quinoline-3-carboxylic acid]",0.314
16,"CCn1cc(C(=O)O)c(=O)c2c(N)c(F)c(N3CCC(NC(C)=O)CC3)c(F)c21 [Example 7 (NorA), 5-Amino-1-ethyl-6,8-difluoro-1,4-dihydro-7-{4′-(acetamido)piperidin-1-yl}-4-oxo-quinoline-3-carboxylic acid]",0.312
17,"O=C(O)c1cn(-c2ccc(F)cc2F)c2nc(NC3CCN(c4cc5c(cc4F)c(=O)c(C(=O)O)cn5C4CC4)C3)c(F)cc2c1=O (stereo not shown) [Bis compound 1, N-1-{7-(1-cyclopropyl-6-fluoro-1,4-dihydro-4-oxo-quinoline-3-carboxylic acid)}-N-3-amino-{7-(1-(2,4-difluorophenyl)-6-fluoro-1,4-dihydro-4-oxo-1,8-naphthyridine-3-carboxylic acid)}-pyrrolidine]",0.253
18,"Cc1c(F)c(N2CCC(Nc3c(F)c(N)c4c(=O)c(C(=O)O)cn(C5CC5)c4c3F)CC2)cc2c1c(=O)c(C(=O)O)cn2C1CC1 [Bis compound 6, N-1-{7-(1-cyclopropyl-6-fluoro-5-methyl-1,4-dihydro-4-oxo-quinolone-3-carboxylic acid)}-N-4-amino{7-(1-cyclopropyl-6,8-difluoro-5-amino-1,4-dihydro-4-oxo-quinoline-3-carboxylic acid)}-piperidine]",0.304
19,"CC1CC(N)CN1c1cc2c(cc1F)c(=O)c(C(=O)O)cn2C1CC1 (stereo not shown) [Example 10 (NorA), 1-Cyclopropyl-6-fluoro-1,4-dihydro-7-(3′-amino-5′-methylpyrrolidin-1-yl)-4-oxo-quinoline-3-carboxylic acid]",0.314
20,"C[C@H](NC(=O)OC(C)(C)C)C(=O)N[C@@H](C)C(=O)NC1CCN(c2c(F)c(N)c3c(=O)c(C(=O)O)cn(C4CC4)c3c2F)CC1 [Example 29 (NorA), 5-Amino-1-cyclopropyl-6,8-difluoro-1,4-dihydro-7-{4′-(-t-butoxycarbonylamino-L-Ala-L-Ala)aminopiperidin-1-yl}-4-oxo-quinoline-3-carboxylic acid]",0.320
21,"CCOC(=O)c1cc(F)c(NC2CCN(c3c(F)c(N)c4c(=O)c(C(=O)O)cn(C5CC5)c4c3F)CC2)c(F)c1F [Bis compound 10, N-1-{7-(1-cyclopropyl-6,8-difluoro-5-amino-1,4-dihydro-4-oxo-quinolone-3-carboxylic acid)}-N-4-amino-{ethyl 2,3,6-trifluorophenyl-4-carboxylate}-piperidine]",0.304
22,"CC(=O)OC1CCN(c2cc3c(cc2F)c(=O)c(C(=O)O)cn3C2CC2)CC1 [Example 11 (NorA), 1-Cyclopropyl-6-fluoro-1,4-dihydro-7-(4′-acetoxypiperidin-1-yl)-4-oxo-quinoline-3-carboxylic acid]",0.282
